# Measurements: patent publication US5414001A, “Antineoplastic pyrrolo[4,3,2-de]quinolin-8(1H)-ones” (American Cyanamid Company, priority 1993, dated 1995)
# What was measured:
# Test in all cases: Antibacterial agar diffusion assay
# Type in all cases: cell-based
# B. subtilis 17 = conditions: H = hazy zones
# E. coli 300 = test system: E. coli 300; parameters: concentration or dose not given beside the values; conditions: 1000 microgram/ml; H = hazy zones
# S. aureus meth r 310 = conditions: 1000 microgram/ml; H = hazy zones
# S. aureus 375 = conditions: H = hazy zones
# C. freundii 395 = conditions: 1000 microgram/ml; H = hazy zones
# K. pneumoniae 53 = conditions: H = hazy zones
sequence,measurement,setting,value
CINODINE,ZONES OF INHIBITION,B. subtilis 17; 64 microgram/ml,8 MM
same,ZONES OF INHIBITION,B. subtilis 17; 250 microgram/ml,11 MM
same,ZONES OF INHIBITION,B. subtilis 17; 1000 microgram/ml,13 MM
same,ZONES OF INHIBITION,E. coli 300,9 MM
same,ZONES OF INHIBITION,S. aureus meth r 310,7 MM
same,ZONES OF INHIBITION,S. aureus 375; 250 microgram/ml,7 MM
same,ZONES OF INHIBITION,S. aureus 375; 1000 microgram/ml,9 MM
same,ZONES OF INHIBITION,C. freundii 395,8H
same,ZONES OF INHIBITION,K. pneumoniae 53; 16 microgram/ml,8 MM
same,ZONES OF INHIBITION,K. pneumoniae 53; 64 microgram/ml,10 MM
same,ZONES OF INHIBITION,K. pneumoniae 53; 250 microgram/ml,12 MM
